Data set [1] can be described thus: Drug concentration by HPLC in drug-loaded 8-arm-PCL-PEG26kDa solution. It is filed as physicochemical. The following applies: 6 mg drug + 60 mg 8-arm-PCL-PEG26kDa (1/10) in 1 ml phosphate buffer 0.1 M pH 7.0, 0.2 μm filtered. As to the method: The solution was dried under argon. The dried solid was heated at 55° C. for two hours under argon. The melt was then cooled to room temperature, placed under vacuum overnight, and reduced to small particles. To the particles was added 1 ml of phosphate buffer (0.1 M, pH 7.0), and the resulting mixture was filtered through 0.2 μm syringe filter.
The solution was dried under argon. The dried solid was heated at 55° C. for two hours under argon. The melt was then cooled to room temperature and placed under vacuum overnight, and reduced to small particles. To the particles was added 1 ml of phosphate buffer (0.1 M, pH 7.0). The resulting mixture was filtered through 0.2 μm syringe filter.

The conditions of data set [2]: drug-loaded 8-arm-PCL-PEG26kDa, phosphate buffer 0.1 M pH 7.0, 37° C., rp-HPLC. As to the method:
At timed intervals, 10 μl of sample was withdrawn and diluted with phosphate buffer (0.1 M, pH 7.0). The solution was filtered through 0.2 μm syringe filter.
At timed intervals, 10 μl of sample was withdrawn and diluted with phosphate buffer (0.1 M, pH 7.0). The solution was filtered through 0.2 μm syringe filter. The filtrate was analyzed by rp-HPLC for paclitaxel concentration.

The nature of data set [3]: Solubility of drugs in plain buffer and in PPO-PEG multi-arm block copolymer 10050 formulation. Type of data set: physicochemical. The following applies: thermodynamic from solid; for solubility: aqueous buffer, phosphate buffer, 0.1 M, pH 7.4, read-out: Solubility of Drug in Plain Buffer; for solubility at 2 h: aqueous with cosolvent or surfactant or cyclodextrin, 50 mg PPO-PEG block copolymer 10050/drug formulation, 10 wt. % drug loading, in 1 ml phosphate buffer 0.1 M pH 7.4, 0.2 μm filtered. On the procedure: After two hours of mixing, the mixture was filtered through 0.2 μm syringe filter. The drug concentration in the filtrate was determined by HPLC or UV using a standard curve.

The structures appear in SMILES notation. In brackets after ≈: the same amount, converted by molar mass.

For the compound `CC(=O)O[C@H]1C(=O)[C@@]2(C)[C@H]([C@H](OC(=O)c3ccccc3)[C@]3(O)C[C@H](OC(=O)[C@H](O)[C@@H](NC(=O)c4ccccc4)c4ccccc4)C(C)=C1C3(C)C)[C@]1(OC(C)=O)CO[C@@H]1C[C@@H]2O` [Paclitaxel, paclitaxel], in data set [1], the “Drug concentration by HPLC” value is “above 4.5 mg/ml”. The “Soluble drug concentration in solution vs. time (FIGS. 8, 9)” value in data set [2] is reported as “retain the paclitaxel in solution for an extended period of time”. Further, in data set [3], the solubility – broadly, the concentration that dissolves in the medium under given conditions – is under 1 µg/mL and the solubility at 2 h was found to be 2000 µg/mL (≈ 2.34 mM).
`Cn1cc(C2=C(c3cn(C)c4cc([N+](=O)[O-])ccc34)C(=O)NC2=O)c2ccc([N+](=O)[O-])cc21` [MNIPD, 3,4-di-[1-methyl 6-nitro-3-indolyl]-1H-pyrrole-2,5-dione]: in data set [3], the solubility is under 0.5 µg/mL and the solubility at 2 h was 2600 µg/mL (≈ 5.84 mM).
In data set [3], `CCCC(=O)OCOC(=O)C(C)(C)C` [Pivaloyloxymethyl butyrate, pivaloyloxymethyl butyrate] had a solubility at 2 h of 12000 µg/mL (≈ 59.3 mM).
Turning to `COc1ccc2c(c1)c(CC(=O)O)c(C)n2C(=O)c1ccc(Cl)cc1` [Indomethacin, indomethacin], in data set [3], the solubility is 88 µg/mL (≈ 0.246 mM) and the solubility at 2 h was 4000 µg/mL (≈ 11.2 mM).

(Values after patent US6730334B2, “Multi-arm block copolymers as drug delivery vehicles” (Nektar Therapeutics AL, Corporation, priority 2001, dated 2004).)
